According to patent publication US7790698B2, “Use of adenosine receptor agonists in therapy” (Cambridge Biotechnology Ltd, priority 2003, dated 2010):
Values after ≈ are worked out from the molar mass of the structure shown.

Columns and labels:
[1] = plasma concentration over time after administration (Example 3, FIG. 3); format: in vivo, rat
Experimental: The EC50 value of 2-methoxyadenosine at the adenosine A2A receptor is 900 ng/ml (3 μM). […] It can be seen that the plasma concentration remains above 2% of the EC50 value for more than 3 hours. Anti-inflammatory effects have been observed (without blood pressure changes) when the peak and maintained plasma concentrations are as low […] (i.e. 2% of the EC50 value determined in vitro).

[2] = system: mean blood pressure and heart rate; conditions: rats, 20 mg/kg po; cited from earlier work
[3] = system: carrageenan (CGN) induced inflammation; test: carrageenan induced inflammation, paw volume by plethysomometry (Example 1, FIG. 1); format: in vivo
Experimental: Carrageenan (2%, 10 microlitres) was administered into the right hind paw, and the paw volume assessed by plethysomometry. 2-methoxyadenosine was administered at the same time as carrageenan. 2-methoxyadenosine was as effective as indomethacin (Indo, 3 mg/kg p.o.).

[4] = target: adenosine A2A receptor; conditions: cited from earlier work
[5] = system: blood pressure and heart rate; test: radiotelemetry of blood pressure and heart rate (Example 2, FIG. 2); format: in vivo, rat; conditions: 0.6 mg/kg p.o., rats
Experimental: FIG. 2: An implantable radiotelemetry device was placed in the abdominal cavity of 6 rats per group. The pressure catheter of the device was inserted in the abdominal aorta and two electrodes tunnelised under the skin in a lead II position (left side of abdominal cavity/right shoulder). Individual rats were placed in their own cage on a radioreceptor (DSI) for data acquisition. The effect of 0.6 mg/kg 2-methoxyadenosine or vehicle (p.o.) on blood pressure was then assessed. A: blood pressure; B: heart rate.

[6] = system: carageenan-induced oedema in a rat paw; conditions: rats, 20 mg/kg po; cited from earlier work

COc1nc(N)c2ncn([C@@H]3O[C@H](CO)[C@@H](O)[C@H]3O)c2n1 [2-methoxyadenosine]
time the plasma concentration remains above 2% of the EC50 value ([1]; 0.6 mg/kg to a rat): more than 3 hours
peak and maintained plasma concentration at which anti-inflammatory effects were observed without blood pressure changes ([1]; as low as, stated as 2% of the EC50 value): 8 ng/mL
effect on blood pressure when the peak plasma concentration reaches the EC50 value ([1]; peak plasma concentration 900 ng/ml, lasts for many hours): profound reductions in blood pressure
reduction in heart rate [2]: 25%
reduction in mean blood pressure [2]: 41%
effect on blood pressure ([3]; 62.4 and 624 μg/kg i.p.): without affecting blood pressure
inhibition of carrageenan (CGN) induced inflammation (paw volume) ([3]; 62.4 and 624 μg/kg i.p., given at the same time as carrageenan, versus indomethacin 3 mg/kg po): comparable efficacy to indomethacin
plasma concentration at which profound anti-inflammatory activity is seen ([3]; plasma concentration): ≤ 0.2 µM
EC50 ([4]; Daly et al. 1993): 3000 nM
EC50 value at the adenosine A2A receptor ([4]; determined in vitro): 900 ng/mL (≈ 3.03 µM)
effect on blood pressure [5]: no significant effect
effect on heart rate [5]: no significant effect
inhibition of carageenan-induced inflammation [6]: 25%
